Read-outs that look alike come from different tables or passages of the source.
Experiments:
[1] = test system: ulcers induced by ligature of the pylorus; assay: Antiulcer activity against ulcers induced by ligature of the pylorus (Shay test); format: in vivo, rat (Sprague Dawley); settings: rat, oral
Protocol: 2. ANTIULCER ACTIVITY against ulcers induced by ligature of the pylorus (Shay test): Groups of 10 Sprague Dawley rats of body weight between 200 and 250 grams were placed in cages under conditions of standard temperature (21°±2° C.), standard relative humidity (60-70%) and standard light (12 hours per day).
The animals were fed with rat pellets and with water at will.
The derivatives to be tested were administered orally 6, 12, 24 and 36 hours before ligature of the pylorus, after dispersion in physiological solution using Tween 80 as dispersant in a quantity of 1% and carboxymethylcellulose in a quantity of 0.2%. The volume administered was 10 ml/kg.
Before ligature, the rats had been kept without food for 18 hours but with free access to water, the pylorus ligature then being made under ether anesthetic, with suture of the peritoneum and of the abdominal wall.
The animals were then kept without food or water, and 18 hours after ligature were sacrificed using chloroform, their stomachs then being withdrawn and opened along the small curvature.
The gastric surface was extended to observe the ulcers, the evaluation being made by measuring their maximum width.

[2] = test system: ulcers induced by cold stress; assay: Antiulcer activity against ulcers induced by cold stress; format: in vivo, rat (Wistar); settings: rat, oral
Protocol: 3. ANTIULCER ACTIVITY against ulcers induced by cold stress: This trial was carried out on Wistar rats weighing about 300 grams each.
The animals were divided randomly into groups of 10 animals each and kept without food for 18 hours before the trial, but had unrestricted water. […]
After ligature, the animals were placed in a refrigerator at a temperature of between 2° C. and 4° C. for two hours.
After this time the rats were sacrificed, their stomachs were withdrawn and opened along the small curvature, and the gastric mucosa checked.
The number of ulcers was counted and their relative diameters measured. From these individual data the mean value for each treatment group was obtained and the inhibition capacity calculated as a percentage relative to the control group, using the following formula: [formula] where C is the mean value in mm for the control group and T the mean value for the group treated with the derivative under examination.

[3] = Acute toxicity in mice, endoperitoneal administration (LD50, Lichtfield and Wilcoxon); design: species or system mouse (Swiss albino); settings: in vivo, ip, mouse, mortality within eight days
Protocol: (§1) Acute toxicity was determined on Swiss albino mice having an average weight of about 20 grams and on Wistar rats having an average weight of 150±10 grams by endoperitoneal administration. All animals were kept fasting for 12 hours before the trial. For the trial, 10 animals, namely 5 males and 5 females, were used for each dose level.
(§2) The LD50 values, expressed as mg/kg, are calculated on the basis of the mortality determined within eight days from administration, in accordance with the Lichtfield and Wilcoxon method.

[4] = Acute toxicity in rats, endoperitoneal administration (LD50, Lichtfield and Wilcoxon); design: species or system rat (Wistar); settings: in vivo, ip, rat, mortality within eight days
Protocol: as §1, §2

[5] = species not given, prior art; cited from earlier work
[6] = prior art, cited from earlier work
[7] = 6 h before pylorus ligature, read-out: ED50 by oral administration at 6 h before pylorus ligature
[8] = 12 h before pylorus ligature, * P < 0.05 versus WAS 4303 (so in the source), read-out: ED50 by oral administration at 12 h before pylorus ligature
[9] = 24 h before pylorus ligature, * P < 0.05 versus WAS 4303 (so in the source), read-out: ED50 by oral administration at 24 h before pylorus ligature
[10] = 36 h before pylorus ligature, * P < 0.05 versus WAS 4303 (so in the source), read-out: ED50 by oral administration at 36 h before pylorus ligature
[11] = 6 h before cold stress, read-out: ED50 by oral administration at 6 h before commencement of cold stress
[12] = 12 h before cold stress, * P < 0.05 versus WAS 4303 (so in the source), read-out: ED50 by oral administration at 12 h before commencement of cold stress
[13] = 24 h before cold stress, * P < 0.05 versus WAS 4303 (so in the source), read-out: ED50 by oral administration at 24 h before commencement of cold stress
[14] = 36 h before cold stress, * P < 0.05 versus WAS 4303 (so in the source), read-out: ED50 by oral administration at 36 h before commencement of cold stress

SMILES	ED50 [1, 7] [mg/kg]	ED50 [1, 8] [mg/kg]	ED50 [1, 9] [mg/kg]	ED50 [1, 10] [mg/kg]	ED50 [2, 11] [mg/kg]	ED50 [2, 12] [mg/kg]	ED50 [2, 13] [mg/kg]	ED50 [2, 14] [mg/kg]	LD50 at 192 h [3] [mg/kg]	LD50 at 192 h [4] [mg/kg]	LD50 for intraperitoneal administration [5] [mg/kg]	antiulcer activity when administered intraperitoneally ([6]; intraperitoneal, experimental tests)	duration of activity [6]
C[C@@H]([C@H](OC(=O)c1cccnc1)c1ccccc1)N(C)CC=C1c2ccccc2CCc2ccccc21 (relative stereo) [ET 2003]	0.4	0.4	0.7	1.2	0.6	0.9	1.3	1.7	580	618	–	–	–
CCCCCCCCCC(=O)O[C@H](c1ccccc1)[C@H](C)N(C)CC=C1c2ccccc2CCc2ccccc21 (relative stereo) [ET 2001]	0.5	0.5	0.7	1.3	0.4	0.9	1.2	2.1	585	510	–	–	–
C[C@@H]([C@H](OC(=O)C(N)Cc1cnc[nH]1)c1ccccc1)N(C)CC=C1c2ccccc2CCc2ccccc21 (some centres unmarked) [ET 2002]	0.4	0.5	0.8	1.1	0.7	1	1.4	1.9	535	590	–	–	–
C[C@@H]([C@H](O)c1ccccc1)N(C)CC=C1c2ccccc2CCc2ccccc21 (relative stereo) [WAS 4304, reference compound]	0.2	1.1	1.8	2.4	0.4	1.6	2.5	2.8	127	87	115	very interesting antiulcer activity	very limited duration
C[C@@H]([C@H](OC(=O)c1cccs1)c1ccccc1)N(C)CC=C1c2ccccc2CCc2ccccc21 (relative stereo) [ET 2004]	0.5	0.4	0.6	1	0.6	0.8	1.4	1.8	630	681	–	–	–

From patent publication US4990522A, “Esterified ephedrine derivatives with prolonged antiulcer activity” (Establissement Texcontor, priority 1987, dated 1991)
